Source: paper PMC3815892 (Microbial biotechnology, 2012)

Biological target: Ar‐BVMO (Acinetobacter radioresistens, UniProt D7PBN2)
Assay: HPLC product detection
Type: biochemical
Conditions: 500 uM substrate, 500 uM NADPH, 0.7 uM enzyme, 37 C, 20 min

With CCc1cc(C(N)=S)ccn1 [ethionamide] the “HPLC product detection (ethionamide S-oxide)” value was “confirmed the presence of ethionamide S‐oxide product”.
